Assay results from patent US20180133212A1, “COMBINATION OF A BCL-2 INHIBITOR AND A BROMODOMAIN INHIBITOR FOR TREATING CANCER” (Gilead Sciences, Inc., priority 2016, published 2018).
Several values for one entry are separate records, joined by “and”; a condition that tells them apart may be missing. Equal entries are not always repeated. Where two headings read alike, the source gives them in different places. Values belong to the molecule of their own block, whether it stands above or below them.

Tests used:
DLBCL and FL cell lines = experiment: Annexin V apoptosis assay (flow cytometry); format: cell-based, human
Method: Apoptosis induced by Compound A was measured by Annexin V staining as detected by flow cytometry. Compound A was diluted two-fold in duplicate to a starting concentration of 5 mM in 100% DMSO, and then serially diluted by three-fold in 100% DMSO in a 96 well plate format to achieve a 500× dose range of 5 mM to 0.76 μM. Serially-diluted Compound A was then further diluted 1:5 in sterile water to generate a 100× stock and finally diluted 1:100 into assay plate wells containing 200 μL of cells. The final concentration of DMSO was 0.2% in 200 μL in the assay wells and the dose range of Compound A was 10 μM to 1.5 nM. Cells were plated at 20,000-80,000 cells per well and assay plates were incubated after compound addition at 37° C. with 5% CO2 for 3 days in growth medium appropriate for each cell line. Control wells on all assay plates included 0.2% DMSO (0% apoptosis on day 3), 1 μM Velcade®, and 1 μM staurosporine (apoptosis control on day 3). Velcade® and staurosporine were used as benchmarks to ensure apoptosis could be achieved in each cell line.
After 72 to 96 hours, the cell compound mixture was transferred to a 96-well deep well conical bottom plate, centrifuged at 300×g, and cell pellets were re-suspended in DPBS. Plates were centrifuged at 300×g, supernatant was decanted, and cell pellets were re-suspended in 500 μl of pre-diluted LIVE/DEAD® Fixable Aqua Dead Cell Stain for 30 minutes at room temperature protected from light. Assay plates were centrifuged at 300×g, supernatant was decanted, and cell pellets were washed twice in 500 μL of DPBS containing 4% FBS. The washed pellets were re-suspended in 100 μL DPBS containing 4% FBS, 5 μL of Annexin V APC was added to each well, and assay plates were incubated for 30 minutes at room temperature, protected from light. Assay plates were washed twice with 500 μL of DPBS containing 4% FBS per well, and cell pellets were finally re-suspended in 250 μL of DPBS containing 4% FBS.
Flow cytometric sampling of 20,000 total events within a forward scatter and side-scatter gate (P1) per well were collected on a BD FACS Canto II instrument with DIVA software (San Jose, Calif.) using a high throughput screen auto-sampler for analysis of apoptosis. Within the P1 gate Annexin V^+/LIVE/DEAD^− and Annexin V^+/LIVE/DEAD^+ cells were digitally monitored. Single- or double-labeled cells were gated, percentages of Annexin V-positive cells in each population were recorded and combined, and data were extracted to a flow cytometry standard file (fcs). Mean percentages of Annexin V-positive cells were determined for the positive control (Velcade® and staurosporine at 1 μM) and negative wells (0.2% DMSO) to ensure the assay performed as expected for each cell line on each experimental day.
EC50 values for each compound were calculated based on log concentration of drug and percent Annexin V-positive cells using a four-parameter logistical fit equation in Prism 6.01 of the GraphPad software package. The percentage of apoptosis at EC50 was interpolated from the curve fit for each cell line. […] For an experiment to be valid, the % baseline apoptosis for a given cell line was required to be <35%.
(§1) The activity of Compound A to induce apoptosis or inhibit cell growth was assessed across a panel of DLBCL cell lines. DLBCL cell lines were subjected to a ten point dose response of Compound A (range 0.5 nM-10,000 nM, 3× dilution series) and assessed for cell growth inhibition by CTG or apoptosis by AnnexinV staining after three or four days.

[1] = Protein shift: free fraction in human plasma / cell culture media; format: in vitro ADME
Method: (§2) Clinically relevant doses of Compound A were calculated.
A set of data was selected from the synergy screening to represent clinically relevant concentration ranges of venetoclax and Compound A. The average concentration of venetoclax (Cav) was estimated at the 400 mg dose adjusted for protein binding using empirically determined free fraction in human plasma/cell culture media. Cmin and Ctrough of Compound A were similarly adjusted.

[2] = Clinically relevant exposures (clinical plasma exposure, protein adjusted); format: in vivo
Method: as §2
A set of data was selected from the synergy screening to represent clinically relevant concentration ranges of venetoclax and Compound A. […] Cmin and Ctrough of Compound A were similarly adjusted.

Myc protein = experiment: Reduction of Myc protein expression by Compound A; format: cell-based, human; settings: subset of cell lines of FIG. 1, dose-dependent
DLBCL cell lines = experiment: Single agent cell growth assessment (Cell Titer Glo); format: cell-based; settings: Homo sapiens, 96 h, CTG, three or four days
Method: Compound A was serially diluted by three-fold in 100% DMSO in a 96 well plate format in duplicate dose curves to achieve a dose range of 10 mM to […] as a 1000× stock. Serially-diluted 1000× Compound A was then further diluted 1:100 in RPMI-1640 without additives to generate a 10× stock and finally diluted 1:10 into assay plate wells containing 100 μL of cells. The final concentration of DMSO was 0.1% in 111 μL of final volume in the assay wells and the dose range of Compound A was 10 μM to 0.5 nM. […] Cell viability was assessed using Cell Titer Glo (CTG, Promega, Madison, Wis.) following the manufacturer's protocol. Luminescence was measured on an EnSpire Multimode Plate Reader (Perkin Elmer, Waltham, Mass., Model 2300-001M).
A replicate assay plate was created at study initiation, processed immediately for cell viability by CTG, and these values represented 0% growth (day 0). […] Curve fittings were applied with a four parameter variable slope model and the following three calculations were determined using the curve fits. […]
as §1

[3] = ABT-199, 400 mg dose, Phase I NHL study; cited from earlier work

EC50 (DLBCL and FL cell lines; Homo sapiens, one responding cell line with EC50 above 113 nM): 2500 nM
EC50 (DLBCL and FL cell lines; individual responding cell lines, three or four days): < 113 nM and 274 nM and 881 nM
CCM/buffer [1]: CCM/buffer 67%
HP/buffer ([1]; human): HP/buffer 11.7
CCM adjusted Cave ([2]; human, in vivo): 40 nM
CCM adjusted Cmin ([2]; human, in vivo): 10 nM
Cmax ([2]; human, in vivo, 4 mg, CCM protein adjusted CCM Cmax): 111 nM
Cmax ([2]; human, in vivo, 4 mg, exposures Cmax): 279 ng/mL and 638 nM
Cmax ([2]; human, in vivo, CCM adjusted Cmax): 90 nM
Cmax ([2]; human, in vivo, protein adjusted Cmax concentration): ~113 nM
EC50 (Myc protein; Homo sapiens): ≤ 155 nM
EC50 (Myc protein): 284 nM
SMILES: Cc1noc(C)c1-c1cc(C(O)(c2ccccn2)c2ccccn2)c2nc(C3CC3)[nH]c2c1 [Compound A]
% apoptosis by 1 μM (DLBCL and FL cell lines; cell lines that did not undergo apoptosis (10 of 21; 8 of the FIG. 1 subset)): < 30%
% Annexin V positive after treatment with 1 μM (DLBCL and FL cell lines; eight cell lines with EC50 <113 nM): > 30%
lines refractory to Bcl-2 inhibition that undergo apoptosis (DLBCL and FL cell lines; of the 8 lines refractory to venetoclax (FIG. 4)): 6
number of cell lines that underwent apoptosis (DLBCL and FL cell lines; of twenty-one DLBCL and FL cell lines, single agent): 11
subset of DLBCL cell lines in which apoptosis was induced (DLBCL and FL cell lines; share of DLBCL cell lines): 58%
EC50 (DLBCL cell lines; DLBCL cell lines of FIG. 1, read-out: growth inhibition EC50 range across cell lines): 12 to 72 nM
EC50 (DLBCL cell lines; mean over subset of cell lines of FIG. 1, read-out: growth inhibition mean EC50): 40 nM

CCM/buffer ([1]; free fraction, cell culture media): CCM/buffer 0.44%
HP/buffer ([1]; free fraction, human plasma): HP/buffer 0.10%
Cmax ([2]; ABT-199, 400 mg dose, cell culture media adjusted, read-out: CCM protein adjusted Cmax): 536 nM
Cmax ([2]; human, plasma, 400 mg, ABT-199, 400 mg dose, cell culture media adjusted, read-out: CCM protein adjusted Cmax): 536 nM
Cmax ([2]; human, plasma, 400 mg, ABT-199, 400 mg dose, read-out: exposures Cmax): 2300 nM
SMILES: CC1(C)CCC(CN2CCN(c3ccc(C(=O)NS(=O)(=O)c4ccc(NCC5CCOCC5)c([N+](=O)[O-])c4)c(Oc4cnc5[nH]ccc5c4)c3)CC2)=C(c2ccc(Cl)cc2)C1 [venetoclax, reference compound]
exposures Cmax [3]: 2000 ng/mL
exposures Cmin [3]: 200 ng/mL
